In PubChem BioAssay (NCI) one finds GI50 and TGI data, which are given here for 17 compounds.

Several values for one entry are separate records, joined by “and”; a condition that tells them apart may be missing. Equal values may be shown once.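 Briefly, cells in 96-well plates were exposed to five compound concentrations for 48 h, and endpoints were estimated by linear interpolation. GI50 marks 50% less growth. At the TGI there is no net growth.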

Holding throughout (experiment): NCI tumour cell line growth inhibition, 48 h
The subject of experiment [1] is HL-60(TB) leukemia.
In experiment [2] the test system is SK-MEL-28 melanoma.
For experiment [3], the system named is MDA-MB-231 breast.
For experiment [4], the system named is OVCAR-3 ovarian.
The test system of experiment [5] is HS 578T breast.
For experiment [6], the system named is CAKI-1 renal.
In experiment [7] the test system is SK-OV-3 ovarian.
Experiment [8] relates to COLO 205 colon.
For experiment [9], the system named is ACHN renal.
The subject of experiment [10] is 786-0 renal.

`NC(=O)c1ccc(N(C(N)=O)c2c(F)cccc2F)nc1-c1ccc(F)cc1F`: the GI50 in [1], in experiment [2], in experiment [3], in experiment [4], in [5] and in experiment [6] was greater than 100 µM throughout. The GI50 in [7], in experiment [8], in [9] and in experiment [10] was greater than 100 µM each time. Also, the TGI in experiment [1], in experiment [2], in experiment [3], in [4], in experiment [5] and in experiment [6] was greater than 100 µM each time. Further, the TGI in experiment [7], in experiment [8], in [9] and in experiment [10] was greater than 100 µM each time.
With `Cn1cc(NC(=O)Nc2cc(C(=O)Nc3cc(C(=O)Nc4cc(S(=O)(=O)O)c5cc(S(=O)(=O)O)cc(S(=O)(=O)O)c5c4)n(C)c3)n(C)c2)cc1C(=O)Nc1cc(C(=O)Nc2cc(S(=O)(=O)O)c3cc(S(=O)(=O)O)cc(S(=O)(=O)O)c3c2)n(C)c1`, the TGI in experiment [1], in experiment [2], in experiment [3], in experiment [4], in [5] and in experiment [7] was greater than 100 µM in each case. In addition, the TGI in [8], in experiment [9] and in [10] was greater than 100 µM each time.
Take `COc1cc(-c2cc(=O)c3c(O)c(OC)c(OC)c(OC)c3o2)cc(OC)c1OC`: the TGI was greater than 100 µM in [1]; greater than 100 µM in experiment [2]; 38.5 µM in experiment [3]; greater than 100 µM in [4]; greater than 20.7 µM in experiment [5]; 26 µM in experiment [7]. The TGI in experiment [8] is greater than 100 µM; in [9] it was greater than 100 µM; in experiment [10], 15.6 µM.
Regarding `CCCCCCCCCCSC(=N)N`, the GI50 in experiment [2] was 3.67 µM; in experiment [3] it was 2.51 µM; in [4] it was 3.71 µM; in experiment [5] it was 2.93 µM; in [6] it was 1.75 µM; in [7], 7.38 µM. Also, the values for the GI50 in experiment [8], in experiment [9] and in [10] were 1.55 µM, 2.82 µM and 4.92 µM, respectively. Moreover, the TGI was 14.1 µM in experiment [2]; 9.15 µM in experiment [3]; 13.8 µM in experiment [4]; 12.5 µM in [5]; 5.26 µM in [6]; 19.9 µM in experiment [7]. Besides, the TGI in experiment [8] was 2.91 µM; in experiment [9], 9.33 µM; in experiment [10] it was 19.5 µM.
Take `C/C(=N/O)c1ccc(Nc2cc(-n3ccnc3)c3ccccc3n2)cc1`: the GI50 in experiment [2] is 70.4 µM; in experiment [3], 8.81 µM; in experiment [4], 22.5 µM; in experiment [5], 12.9 µM; in experiment [6] it was 26.6 µM; in experiment [7] it was greater than 100 µM. Besides, the GI50 was 11.8 µM in [8], 18.6 µM in experiment [9] and 4.83 µM in experiment [10]. The TGI in experiment [2] was greater than 100 µM; in experiment [3] it was 38.2 µM; in experiment [4], 91.3 µM; in experiment [5] it was greater than 100 µM; in [6], greater than 100 µM; in experiment [7] it was greater than 100 µM. The TGI in experiment [8] is greater than 100 µM; in experiment [9], 90.8 µM; in experiment [10], greater than 100 µM.
For the compound `O=C(c1ccc2ccccc2c1)c1c(C(F)(F)F)n([O-])c2ccc(F)cc2[n+]1=O`, the GI50 is 0.266 µM in experiment [1]; 1.68 µM in experiment [2]; 1.48 µM in experiment [3]; 1.98 µM in experiment [5]; 2.16 µM in experiment [7]; 0.188 µM in [8]. For the same compound, the figures for the GI50 in experiment [9] and in [10] were 1.68 µM and 1.57 µM, respectively. Moreover, the TGI in experiment [1] was determined as 2.23 µM; in experiment [2] it was 3.18 µM; in experiment [3], 3.02 µM; in experiment [5], 4.77 µM; in experiment [7], 5.05 µM; in experiment [8], 0.425 µM. Further, the TGI in experiment [9] was 3.04 µM; in [10], 3.01 µM.
For the compound `Cc1cc(Br)cc(C)c1NC(=O)C(=O)Nn1c(=S)[nH]c2ccccc2c1=O`, the TGI in experiment [1], in experiment [2], in [3], in [4], in [5] and in experiment [6] was greater than 100 µM throughout. The TGI in experiment [7], in experiment [9] and in [10] was greater than 100 µM in each case.
Regarding `Oc1ccc(Cl)cc1/C=N\NC(=S)N/N=C/c1cc(Cl)ccc1O`, the GI50 in experiment [1] was 1.37 µM; in experiment [2] it was 4.58 µM; in [3], 1.84 µM; in experiment [4], 1.87 µM; in [5] it was 8.37 µM; in experiment [6], 1.24 µM. In addition, the GI50 is 3.34 µM in experiment [8], 2.35 µM in experiment [9] and 1.43 µM in [10]. In addition, the TGI was 4.23 µM in experiment [1]; greater than 100 µM in experiment [2]; 27.6 µM in [3]; 11.7 µM in experiment [4]; greater than 100 µM in experiment [5]; 8.48 µM in experiment [6]. The TGI was 41.6 µM in experiment [8], greater than 100 µM in [9] and 4.52 µM in experiment [10].
For `Nc1ccn(C2OC(C(OC3OC(CO)C(O)C(N)C3O)C(O)C(O)C(O)C(O)CO)C(N)C(O)C2O)c(=O)n1` (stereo not drawn), the TGI in [1] was greater than 100 µM; in [2], greater than 100 µM; in experiment [3] it was 41.1 µM; in experiment [4], 86.6 µM; in experiment [5] it was 7.27 µM; in [6], greater than 100 µM. The TGI in experiment [8], in [9] and in experiment [10] was greater than 100 µM each time.
Turning to `O=C(Nc1nc2ccccc2s1)c1cc(-c2ccc(F)cc2)n2nc(-c3ccccc3)cc2n1`, the GI50 was greater than 100 µM in experiment [1]; 2.36 µM in experiment [3]; 2.29 µM in experiment [5]; 2.3 µM in experiment [7]; 2.12 µM in [10]. The TGI in experiment [1] was greater than 100 µM; in experiment [3], 5.61 µM; in experiment [5] it was 8.64 µM; in experiment [7], 5.56 µM; in [10], 5.1 µM.
For `Cn1cc(-c2nc(N[C@@H]3CCCC[C@@H]3N)c(F)c3c2C(=O)NC3)cn1`, the GI50 in experiment [1] is 9.21 µM and 11.2 µM; in [2], 8.96 µM and 10.8 µM; in experiment [3], 5.04 µM and 6.15 µM; in [4], 15.1 µM and 15.6 µM; in [5] it was 5.95 µM and 6.14 µM; in experiment [7] it was 4.06 µM and 3.77 µM. The GI50 was 1.41 µM and 1.63 µM in experiment [8]; 3.08 µM and 4.65 µM in experiment [9]; 3.99 µM and 6.36 µM in experiment [10]. Besides, the TGI is 37 µM and 40.9 µM in [1]; greater than 100 µM in experiment [2]; 26.2 µM and 31.9 µM in experiment [3]; 42.1 µM and 38.7 µM in experiment [4]; 71 µM and 57.2 µM in [5]; 40.1 µM and 43.8 µM in [7]. The TGI in experiment [8] is 3.99 µM and 4.13 µM; in [9], greater than 100 µM; in experiment [10] it was 22.1 µM and > 52.4 µM.
Consider `COc1ccc2c(c1)/C(=N/OC(C)=O)c1c-2cnc2ccccc12`, for which the GI50 in [1] is 19.6 µM; in [2] it was 31.6 µM; in experiment [3], 22.1 µM; in experiment [5], 39.8 µM; in [7] it was 40.4 µM; in experiment [8], 26.5 µM. The GI50 was 20.4 µM in [9] and 17.8 µM in experiment [10]. For the same compound, the TGI in experiment [1] was 67 µM; in [2], 77.2 µM; in [3], 59.4 µM; in [5] it was greater than 100 µM; in experiment [7], greater than 100 µM; in experiment [8], 94.7 µM. The TGI in experiment [9] worked out at 45.4 µM; in experiment [10], 33.2 µM.
For `Cc1cc2nc3c4ccc(Br)cc4n(CCN(C)C)c3nc2cc1C`, the GI50 in [1] is 1.45 µM; in experiment [2], 1.69 µM; in experiment [3], 1.97 µM; in experiment [4] it was 2.04 µM; in experiment [5], 2.06 µM; in [6], 1.53 µM. Further, the figures for the GI50 in experiment [7], in [9] and in experiment [10] were 2.65 µM, 0.459 µM and 1.44 µM, respectively. For the same compound, the TGI in [1] amounted to 5.68 µM; in [2], 3.12 µM; in [3], 7.45 µM; in [4] it was 6.96 µM; in [5] it was 6.38 µM; in [6], 5.42 µM. For the same compound, the figures for the TGI in experiment [7], in experiment [9] and in [10] were 12.7 µM, 2.23 µM and 7.65 µM, respectively.
As for `CCN(CC)Cc1cc(Nc2c3ccccc3nc3cc(Cl)ccc23)ccc1O`, the GI50 in [2] was 1.79 µM; in experiment [3], 1.73 µM; in experiment [4], 1.74 µM; in experiment [5] it was 2.26 µM; in experiment [6] it was 1.87 µM; in [7] it was 2.01 µM. In addition, the GI50 in experiment [8] is 1.05 µM; in experiment [9] it was 1.47 µM; in experiment [10] it was 1.21 µM. Also, the TGI in [2] was 3.2 µM; in experiment [3], 3.59 µM; in experiment [4], 3.28 µM; in experiment [5] it was 6.24 µM; in experiment [6], 4.73 µM; in experiment [7] it was 3.86 µM. For the same compound, the TGI is 2.3 µM in experiment [8], 2.97 µM in [9] and 2.46 µM in experiment [10].
With `COc1ccc(C(=O)c2cc3c(N)c(C(=O)Nc4cccc(OC)c4)sc3nc2C)cc1`, the GI50 is 0.311 µM in experiment [1]; greater than 100 µM in experiment [2]; 1.47 µM in experiment [3]; 0.546 µM in [5]; 0.694 µM in experiment [6]; 1 µM in experiment [8]. Further, the GI50 in experiment [9] was 0.853 µM; in [10], 0.713 µM. For the same compound, the TGI was 1.52 µM in [1]; greater than 100 µM in [2]; greater than 100 µM in [3]; greater than 100 µM in [5]; greater than 100 µM in experiment [6]; greater than 100 µM in experiment [7]. Besides, the results for the TGI in experiment [8], in [9] and in experiment [10] were greater than 59 µM, greater than 100 µM and greater than 100 µM, respectively.
On to `COc1cc2c(cc1OCCCOc1ccc(-c3nc4ccc(N5CCN(C)CC5)cc4[nH]3)cc1)N=C[C@@H]1CCCN1C2=O`, for which the GI50 in experiment [1], in experiment [2], in experiment [3], in experiment [4], in [5] and in [6] was less than 0.01 µM in each case. In addition, the GI50 in experiment [7], in experiment [8] and in experiment [10] was less than 0.01 µM in each case. In addition, the TGI is less than 0.01 µM in [1]; 54.5 µM in experiment [2]; less than 0.01 µM in experiment [3]; less than 0.01 µM in [4]; less than 0.01 µM in experiment [5]; less than 0.01 µM in experiment [6]. Also, the TGI in experiment [7] is 22.8 µM; in [8], greater than 100 µM; in experiment [10], 0.524 µM.
Take `CN=C(N)N/N=C(\C)c1ccc2c(c1)Cc1ccccc1-2`: the GI50 in experiment [1] was 0.399 µM; in experiment [2], 2.22 µM; in experiment [3], 1.78 µM; in experiment [5] it was 3.17 µM; in experiment [6], 2.5 µM; in experiment [7], 1.61 µM. Moreover, the GI50 is 1.66 µM in [8], 1.78 µM in [9] and 1.86 µM in [10]. The TGI in experiment [1] came out at 1.94 µM; in [2] it was 4.63 µM; in experiment [3], 4.31 µM; in experiment [6] it was 8.82 µM; in experiment [7], 5.1 µM; in experiment [8], 3.02 µM. In addition, the TGI in experiment [9] turned out to be 3.61 µM; in [10], 3.74 µM.
